Laboratory results as given in the supplement of paper PMC10307832.

Experiments:
Experiment in all cases: relative viability (nuclei count vs DMSO), 5 days (fraction); higher = more cells survive
[1] = tested on: NCI-H1975; settings: first compound 0.5 µM
Outline: (§1)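 Lung cancer cell lines, seeded in 1536-well plates, were treated the following day by pin tool with a single drug or with five library-drug doses (not always all listed) in √10 steps on top of a fixed anchor-drug dose. Cells were fixed and nuclei stained in one step after 5 days, and nuclei were counted. Relative viability is the nuclei count for treated wells divided by that for vehicle wells, reported as medians of duplicate plates.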

[2] = tested on: NCI-H2126
Outline: as §1

[3] = tested on: NCI-H2228
Outline: as §1

[4] = tested on: NCI-H2342
Outline: as §1

[5] = tested on: NCI-H2347
Outline: as §1

[6] = tested on: NCI-H358
Outline: as §1

[7] = tested on: NCI-H522
Outline: as §1

[8] = tested on: NCI-H647
Outline: as §1

[9] = tested on: PC-3 [JPC-3]
Outline: as §1

[10] = tested on: RERF-LC-KJ
Outline: as §1

[11] = tested on: SK-LU-1
Outline: as §1

[12] = tested on: SW 1573
Outline: as §1

Compound: COc1cc2nccc(Oc3ccc(NC(=O)Nc4cc(C)on4)c(Cl)c3)c2cc1OC [Tivozanib] + CC(=O)c1c(C)c2cnc(Nc3ccc(N4CCNCC4)cn3)nc2n(C2CCCC2)c1=O [Palbociclib] (partner 0.5 µM)
- relative viability [1]: 0.509
- relative viability ([2]; first compound 0.005 µM): 0.384
- relative viability ([2]; first compound 0.01581 µM): 0.345
- relative viability ([2]; first compound 0.05 µM): 0.352
- relative viability ([2]; first compound 0.1581 µM): 0.337
- relative viability ([2]; first compound 0.5 µM): 0.371
- relative viability ([3]; first compound 0.005 µM): 0.688
- relative viability ([3]; first compound 0.01581 µM): 0.68
- relative viability ([3]; first compound 0.05 µM): 0.883
- relative viability ([3]; first compound 0.1581 µM): 0.321
- relative viability ([3]; first compound 0.5 µM): 0.643
- relative viability ([4]; first compound 0.005 µM): 0.495
- relative viability ([4]; first compound 0.01581 µM): 0.524
- relative viability ([4]; first compound 0.05 µM): 0.536
- relative viability ([4]; first compound 0.5 µM): 0.469
- relative viability ([5]; first compound 0.005 µM): 0.48
- relative viability ([5]; first compound 0.01581 µM): 0.424
- relative viability ([5]; first compound 0.05 µM): 0.462
- relative viability ([5]; first compound 0.1581 µM): 0.478
- relative viability ([5]; first compound 0.5 µM): 0.422
- relative viability ([6]; first compound 0.005 µM): 0.123
- relative viability ([6]; first compound 0.01581 µM): 0.165
- relative viability ([6]; first compound 0.05 µM): 0.122
- relative viability ([6]; first compound 0.1581 µM): 0.133
- relative viability ([6]; first compound 0.5 µM): 0.157
- relative viability ([7]; first compound 0.005 µM): 1
- relative viability ([7]; first compound 0.01581 µM): 0.849
- relative viability ([7]; first compound 0.05 µM): 0.889
- relative viability ([7]; first compound 0.1581 µM): 0.894
- relative viability ([7]; first compound 0.5 µM): 1.21
- relative viability ([8]; first compound 0.005 µM): 0.396
- relative viability ([8]; first compound 0.01581 µM): 0.391
- relative viability ([8]; first compound 0.05 µM): 0.3
- relative viability ([8]; first compound 0.1581 µM): 0.32
- relative viability ([8]; first compound 0.5 µM): 0.35
- relative viability ([9]; first compound 0.01581 µM): 0.55
- relative viability ([9]; first compound 0.05 µM): 0.554
- relative viability ([9]; first compound 0.1581 µM): 0.609
- relative viability ([9]; first compound 0.5 µM): 0.55
- relative viability ([10]; first compound 0.005 µM): 1.01
- relative viability ([10]; first compound 0.01581 µM): 1.05
- relative viability ([10]; first compound 0.05 µM): 1.11
- relative viability ([10]; first compound 0.1581 µM): 1.08
- relative viability ([10]; first compound 0.5 µM): 1.04
- relative viability ([11]; first compound 0.005 µM): 0.372
- relative viability ([11]; first compound 0.01581 µM): 0.396
- relative viability ([11]; first compound 0.05 µM): 0.386
- relative viability ([11]; first compound 0.1581 µM): 0.367
- relative viability ([11]; first compound 0.5 µM): 0.37
- relative viability ([12]; first compound 0.005 µM): 0.344
- relative viability ([12]; first compound 0.01581 µM): 0.412
- relative viability ([12]; first compound 0.05 µM): 0.418
- relative viability ([12]; first compound 0.1581 µM): 0.391
- relative viability ([12]; first compound 0.5 µM): 0.344
